Assay results taken from patent publication US11814327B2, “Fertilizers containing animal nutrient core packet” (Pursell Agri-Tech, LLC, priority 2010, dated 2023).

System: spinach variety (Bloomsdale Long-Standing)
Assay: Zinc uptake in spinach plants from application of fertilizer containing animal nutrient core packet (8-kg pot test)
Assay type: in vivo
Settings: Soil applied Zn nutrient core product
Experimental: In this example tests were performed to quantify the incorporation of zinc in a common spinach variety (Bloomsdale Long-Standing) employing compositions of the present invention. The tests quantified the increase in leaf zinc content due to application of compositions of the present invention containing zinc. The impact of the present compositions on spinach biomass increase was not the primary objective. In addition to applications of the present compositions to soil, for comparative purposes, foliar application of zinc solutions were applied to spinach leaves. Direct foliar applications provide an indication of potentially maximum amounts of zinc uptake into the leaves. 1. Soil • 8 kg Greenville loam (fine, kaolinitic, thermic Rhodie Kandiudults), pH=6.2, organic matter=1.4%, CEC=5.2 cmol kg^−1. The soil has been depleted of nutrients by previous cropping of tomatoes and cabbage. 2. Experimental Units • The spinach was grown in 8-kg pots. Each pot was transplanted with two spinach seedlings on Mar. 5, 2010 3. Blanket Fertilizer Rates—Basal • All fertilizer materials were laboratory grade reagents to avoid contamination and antagonistic interaction with Zn, Fe and/or I. • Nitrogen: 250 mg N kg^−1 or 2 g N por^−1. […] Crop Data Analysis • The fresh and dried weight of spinach leaves was determined and analyzed for N, P, K, Zn, Fe and I. [table]

## O=C([O-])CN(CCN(CC(=O)[O-])CC(=O)[O-])CC(=O)[O-].[Na+].[Na+].[Zn+2] [Zinc EDTA]
  effectiveness as Zn source in the nutrient core in increasing Zn tissue content in spinach: more effective than ZnSO4
